Measurements taken from the supplement of paper PMC10307832.

Legend:
Assay in all cases: relative viability (nuclei count vs DMSO), 5 days (fraction); higher = more cells survive
[1] = compound: COc1cc(Nc2ncc(F)c(Nc3ccc4c(n3)NC(=O)C(C)(C)O4)n2)cc(OC)c1OC [R406] + CC(=O)c1c(C)c2cnc(Nc3ccc(N4CCNCC4)cn3)nc2n(C2CCCC2)c1=O [Palbociclib] (partner 0.5 µM)
Method in brief: (§1)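 Relative viability was taken as the ratio of nuclei in treated wells to nuclei in vehicle wells. Lung cancer cell lines in 1536-well plates received compounds by pin tool one day after seeding, either one drug alone or a fixed anchor-drug dose plus five library-drug doses (not always all listed) in √10 steps. Nuclei were counted on 4× images after 5 days of treatment, and values are medians of duplicate plates.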

[2] = compound: O=C(/C=C/c1cccnc1)NCCCCC1CCN(C(=O)c2ccccc2)CC1 [Daporinad] + O=C(c1cc(Cc2n[nH]c(=O)c3ccccc23)ccc1F)N1CCN(C(=O)C2CC2)CC1 [Olaparib] (partner 8 µM)
Method in brief: as §1

[3] = compound: O=C(/C=C/c1cccnc1)NCCCCC1CCN(C(=O)c2ccccc2)CC1 [Daporinad] + CC(=O)c1c(C)c2cnc(Nc3ccc(N4CCNCC4)cn3)nc2n(C2CCCC2)c1=O [Palbociclib] (partner 0.5 µM)
Method in brief: as §1

[4] = compound: O=C(/C=C/c1cccnc1)NCCCCC1CCN(C(=O)c2ccccc2)CC1 [Daporinad] + CS(=O)(=O)N1CCN(Cc2cc3nc(-c4cccc5[nH]ncc45)nc(N4CCOCC4)c3s2)CC1 [Pictilisib] (partner 1 µM)
Method in brief: as §1

Cell Line | relative viability ([1]; first compound 0.08 µM) | relative viability ([1]; first compound 0.253 µM) | relative viability ([1]; first compound 0.8 µM) | relative viability ([1]; first compound 2.53 µM) | relative viability ([1]; first compound 8 µM) | relative viability ([2]; first compound 0.0005 µM) | relative viability ([2]; first compound 0.001581 µM) | relative viability ([2]; first compound 0.005 µM) | relative viability ([2]; first compound 0.01581 µM) | relative viability ([3]; first compound 0.0005 µM) | relative viability ([3]; first compound 0.001581 µM) | relative viability ([3]; first compound 0.005 µM) | relative viability ([3]; first compound 0.01581 µM) | relative viability ([4]; first compound 0.0005 µM) | relative viability ([4]; first compound 0.001581 µM) | relative viability ([4]; first compound 0.005 µM) | relative viability ([4]; first compound 0.01581 µM)
NCI-H2170 | 0.379 | 0.393 | 0.452 | 0.264 | 0.419 | 0.56 | 0.57 | 0.609 | 0.337 | 0.351 | 0.39 | 0.394 | 0.381 | 0.315 | 0.331 | 0.301 | 0.407
NCI-H2228 | 0.728 | 1.07 | 0.688 | 0.244 | 0.427 | 0.459 | 0.715 | 0.708 | 0.584 | 0.67 | 0.745 | 0.529 | 0.811 | 0.342 | 0.358 | 0.495 | 0.464
NCI-H2347 | 0.423 | 0.415 | 0.453 | 0.446 | 0.406 | 0.543 | 0.604 | 0.571 | 0.416 | 0.447 | 0.447 | 0.419 | 0.384 | 0.636 | 0.788 | 0.711 | 0.685
NCI-H2405 | 0.52 | 0.561 | 0.517 | 0.364 | 0.2 | 0.848 | 0.841 | 0.639 | 0.407 | 0.54 | 0.577 | 0.555 | 0.415 | 0.505 | 0.485 | 0.5 | 0.377
NCI-H3122 | 0.18 | 0.184 | 0.178 | 0.237 | 0.238 | 0.564 | 0.565 | 0.501 | 0.421 | 0.168 | 0.205 | 0.192 | 0.177 | 0.446 | 0.617 | 0.677 | 0.692
PC-3 [JPC-3] | 0.518 | 0.591 | 0.582 | 0.549 | 0.45 | 1.18 | 1.08 | 1 | 1.09 | 0.548 | 0.54 | 0.535 | 0.553 | 0.703 | 0.987 | 0.824 | 0.659
PC-14 | 0.58 | 0.666 | 0.735 | 0.346 | 0.146 | 0.242 | 0.194 | 0.168 | 0.087 | 0.564 | 0.522 | 0.601 | 0.339 | 0.656 | 0.726 | 0.876 | 0.735
RERF-LC-KJ | 1.04 | 1.19 | 1.07 | 0.883 | 0.86 | 0.867 | 0.896 | 0.82 | 0.757 | 1.08 | 1.06 | 1.09 | 1.07 | 0.58 | 0.529 | 0.525 | 0.695
SK-LU-1 | 0.392 | 0.423 | 0.367 | 0.258 | 0.191 | 0.426 | 0.548 | 0.394 | 0.299 | 0.336 | 0.268 | 0.423 | 0.422 | 0.482 | 0.601 | 0.637 | 0.595
SK-MES-1 | 0.313 | 0.297 | 0.307 | 0.259 | 0.192 | 0.603 | 0.636 | 0.423 | 0.323 | 0.332 | 0.303 | 0.329 | 0.352 | 0.296 | 0.4 | 0.345 | 0.306
SW 1573 | 0.402 | 0.364 | 0.467 | 0.32 | 0.127 | 0.367 | 0.312 | 0.323 | 0.274 | 0.387 | 0.398 | 0.348 | 0.307 | 0.524 | 0.552 | 0.524 | 0.36
